Where two headings read alike, the source gives them in different places.
Experiments:
PIM-2 = target: T1, PIM-2 (Homo sapiens, UniProt Q9P1W9); assay: PIM-2 biochemical assay (ADP Hunter); settings: semi-quantitative class; read-out: PIM2 IC50;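 also: recombinant N-terminally His-tagged human enzyme, kinase activity quantified by detection of ADP formed as the direct reaction product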
T1 construct: histidine tag (N); made in house

FLT3 = target: T2, FLT3 (Homo sapiens, UniProt P36888); assay: FLT3 biochemical assay (ADP Hunter);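 also: FLT3 enzymatic activity quantified through the ADP produced by the kinase reaction, detected with an ADP Hunter readout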
T2 sequence (P36888 27-993): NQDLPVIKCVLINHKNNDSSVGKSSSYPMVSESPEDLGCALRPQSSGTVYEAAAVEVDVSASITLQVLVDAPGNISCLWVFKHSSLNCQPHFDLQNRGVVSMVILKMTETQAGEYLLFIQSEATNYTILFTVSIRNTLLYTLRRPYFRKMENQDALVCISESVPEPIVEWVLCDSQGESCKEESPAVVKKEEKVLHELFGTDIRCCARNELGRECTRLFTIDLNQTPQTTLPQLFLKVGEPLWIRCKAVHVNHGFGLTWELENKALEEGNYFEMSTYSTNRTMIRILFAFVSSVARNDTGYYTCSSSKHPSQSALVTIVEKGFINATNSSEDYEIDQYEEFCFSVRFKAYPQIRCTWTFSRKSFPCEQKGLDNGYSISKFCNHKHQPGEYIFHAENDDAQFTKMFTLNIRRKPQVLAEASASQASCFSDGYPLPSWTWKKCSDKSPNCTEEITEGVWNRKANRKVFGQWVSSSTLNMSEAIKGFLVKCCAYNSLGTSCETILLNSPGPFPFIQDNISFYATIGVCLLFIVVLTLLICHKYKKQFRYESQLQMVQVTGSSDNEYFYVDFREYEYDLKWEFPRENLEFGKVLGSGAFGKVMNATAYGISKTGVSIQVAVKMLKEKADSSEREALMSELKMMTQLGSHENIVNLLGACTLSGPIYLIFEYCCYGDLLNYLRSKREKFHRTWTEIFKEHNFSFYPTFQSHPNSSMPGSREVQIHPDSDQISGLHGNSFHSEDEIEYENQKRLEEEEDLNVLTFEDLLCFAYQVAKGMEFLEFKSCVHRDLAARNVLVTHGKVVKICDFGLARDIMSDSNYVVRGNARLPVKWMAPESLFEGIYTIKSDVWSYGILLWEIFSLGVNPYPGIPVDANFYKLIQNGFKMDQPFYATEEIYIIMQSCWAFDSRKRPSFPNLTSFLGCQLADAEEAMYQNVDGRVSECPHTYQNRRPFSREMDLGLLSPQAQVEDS

PIM-3 = target: T3, PIM-3 (Homo sapiens, UniProt Q86V86); assay: PIM-3 biochemical assay (ADP Hunter); settings: read-out: PIM3 IC50;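 also: kinase activity read out as the quantity of ADP generated by the enzyme reaction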
T3 construct: purchased Millipore 14-738

PIM-1 = target: T4, PIM-1 (Homo sapiens, UniProt P11309); assay: PIM-1 biochemical assay (ADP Hunter); settings: read-out: PIM1 IC50;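 also: recombinant human PIM-1 carrying a C-terminal His tag, kinase activity quantified via ADP formed as the direct enzymatic product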
T4 construct: histidine tag (C); made in house
T4 sequence (P11309 whole entry): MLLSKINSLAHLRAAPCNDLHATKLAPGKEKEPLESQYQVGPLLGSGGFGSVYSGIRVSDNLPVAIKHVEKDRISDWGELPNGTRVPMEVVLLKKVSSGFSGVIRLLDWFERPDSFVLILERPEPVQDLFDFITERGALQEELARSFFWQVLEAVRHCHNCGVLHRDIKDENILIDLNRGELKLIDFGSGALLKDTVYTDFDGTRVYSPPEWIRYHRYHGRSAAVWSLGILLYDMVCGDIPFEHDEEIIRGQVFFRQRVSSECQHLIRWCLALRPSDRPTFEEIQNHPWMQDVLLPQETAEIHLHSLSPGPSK

tumor cell lines = assay: Combination assay (MTT in vitro cell proliferation, combination index); assay type: cell-based
[1] = actual IC50 value in parentheses

T1 sequence (Q9P1W9 whole entry): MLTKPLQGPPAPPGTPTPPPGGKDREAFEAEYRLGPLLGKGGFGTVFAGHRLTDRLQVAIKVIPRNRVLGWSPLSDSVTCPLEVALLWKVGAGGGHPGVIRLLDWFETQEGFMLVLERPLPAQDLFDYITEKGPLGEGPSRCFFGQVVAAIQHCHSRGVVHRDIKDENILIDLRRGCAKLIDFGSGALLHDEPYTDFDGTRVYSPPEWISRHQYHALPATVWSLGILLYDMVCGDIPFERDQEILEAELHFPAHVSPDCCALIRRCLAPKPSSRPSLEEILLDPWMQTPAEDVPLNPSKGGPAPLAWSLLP

Compound | IC50 (PIM-2) | IC50 (FLT3; semi-quantitative class) | IC50 (PIM-3; [1]) | IC50 (PIM-3; semi-quantitative class) | IC50 (PIM-1; [1]) | IC50 (PIM-1; semi-quantitative class) | IC50 (FLT3; [1]) | Synergy (tumor cell lines; Jeko-1, combined with lapatinib) | Synergy (tumor cell lines; MV4:11, combined with GDC-0941)
Oc1ccc(-n2nnc3ccc(NCc4ccc(F)cc4)nc32)cc1 [2-04, 4-[5-(4-Fluoro-benzylamino)-[1,2,3]triazolo[4,5-b]pyridin-3-yl]-phenol] | 100 to 1000 nM | > 1000 nM | 51 nM | < 100 nM |  |  |  |  | 
Oc1ccc(-n2nnc3ccc(N4CCCCCC4)nc32)cc1 [2-05] |  | > 1000 nM |  |  |  |  |  |  | 
FCCN1CCC(CNc2ccc3nnn(-c4cccc(OC(F)(F)F)c4)c3n2)CC1 [2-28] | > 1000 nM | > 1000 nM |  | > 1000 nM |  |  |  |  | 
COCCN1CCC(CNc2ccc3nnn(-c4cccc(OC(F)(F)F)c4)c3n2)CC1 [2-30] | > 1000 nM | > 1000 nM |  |  |  |  |  |  | 
Oc1ccc(-n2nnc3ccc(NCC4CCNCC4)nc32)cc1 [2-32] | > 1000 nM | 100 to 1000 nM | 15 nM | < 100 nM | 11 nM | < 100 nM |  |  | 
OCCCNc1ccc2nnn(-c3cccc(OC(F)(F)F)c3)c2n1 [2-38] | > 1000 nM | > 1000 nM |  |  |  | 100 to 1000 nM |  |  | 
CNCCCNc1ccc2nnn(-c3cccc(OC(F)(F)F)c3)c2n1 [2-50] | > 1000 nM |  |  |  |  | 100 to 1000 nM |  |  | 
O[C@H]1CC[C@@H](CNc2ccc3nnn(-c4cccc(OC(F)(F)F)c4)c3n2)CC1 [2-57] | > 1000 nM | > 1000 nM |  | 100 to 1000 nM |  | < 100 nM |  |  | 
FC(F)(F)c1cccc(-n2nnc3ccc(NCC4CCNCC4)nc32)c1 [2-63] | > 1000 nM | > 1000 nM |  | 100 to 1000 nM |  |  |  |  | 
O[C@H]1CC[C@@H](Nc2ccc3nnn(-c4cccc(OC(F)(F)F)c4)c3n2)CC1 [2-68] |  |  |  |  |  |  |  | ++ (0.3 < CI < 0.7 (++)) | ++ (0.3 < CI < 0.7 (++))
Nc1ccc(-n2nnc3ccc(NCC4CCNCC4)nc32)cn1 [2-71] | > 1000 nM | 100 to 1000 nM |  |  |  |  |  |  | 
CC(C)CN1CCC(CNc2ccc3nnn(-c4cccc(OC(F)(F)F)c4)c3n2)CC1 [2-74] | > 1000 nM | > 1000 nM |  |  |  | 100 to 1000 nM |  |  | 
FC(F)(F)Oc1cccc(-n2nnc3ccc(NCC4CCN(CC5CCOCC5)CC4)nc32)c1 [2-75] | > 1000 nM | > 1000 nM |  |  |  | 100 to 1000 nM |  |  | 
FC(F)(F)c1csc(-n2nnc3ccc(NCC4CCNCC4)nc32)n1 [2-88] | > 1000 nM | > 1000 nM |  |  |  |  |  |  | 
FC(F)(F)Oc1cccc(-n2nnc3cc(Br)c(NCC4CCNCC4)nc32)c1 [2-89] | 100 to 1000 nM | < 100 nM | 8 nM | < 100 nM | 11 nM | < 100 nM | 58 nM |  | 
CCN1CCC2(CC1)CC(CNc1nc3c(cc1Cl)nnn3-c1cccc(OC(F)(F)F)c1)C2 [2-91] | > 1000 nM | 100 to 1000 nM |  |  |  | 100 to 1000 nM |  |  | 
COc1cc(NC2CCOCC2)nc2c1nnn2-c1cccc(N(C)C)c1 [2-93] |  | > 1000 nM |  |  |  | 100 to 1000 nM |  |  | 
COc1cc(NCC2CC3(CCNCC3)C2)nc2c1nnn2-c1cccc(N(C)C)c1 [2-94] | > 1000 nM | > 1000 nM | 56 nM | < 100 nM | 9 nM | < 100 nM |  |  | 
COc1cc(NC2CC3(CCNCC3)C2)nc2c1nnn2-c1cccc(N(C)C)c1 [2-96] | > 1000 nM | > 1000 nM | 68 nM | < 100 nM | 32 nM | < 100 nM |  |  | 

The next lines start with results.

IC50 (PIM-2) | IC50 (FLT3; semi-quantitative class) | IC50 (PIM-3; [1]) | IC50 (PIM-3; semi-quantitative class) | IC50 (PIM-1; [1]) | IC50 (PIM-1; semi-quantitative class) | IC50 (FLT3; [1]) | Compound | Synergy (tumor cell lines; Jeko-1, combined with lapatinib) | Synergy (tumor cell lines; MV4:11, combined with GDC-0941)
> 1000 nM | > 1000 nM |  | 100 to 1000 nM |  |  |  | CN1CCC(CNc2ccc3nnn(-c4cccc(OC(F)(F)F)c4)c3n2)CC1 [2-19, (1-Methyl-piperidin-4-ylmethyl)-[3-(3-trifluoromethoxy-phenyl)-3H-[1,2,3]triazolo[4,5-b]pyridin-5-yl]-amine] |  | 
> 1000 nM | > 1000 nM |  |  |  |  |  | FC(F)(F)Oc1cccc(-n2nnc3ccc(NCC4CCN(CC5CC5)CC4)nc32)c1 [2-31] |  | 
> 1000 nM | 100 to 1000 nM |  |  |  | 100 to 1000 nM |  | FC(F)(F)Oc1cccc(-n2nnc3ccc(NCCN4CCNCC4)nc32)c1 [2-36] |  | 
> 1000 nM | > 1000 nM |  |  |  | 100 to 1000 nM |  | FC(F)(F)Oc1cccc(-n2nnc3ccc(N4CCC5(CC4)CNC5)nc32)c1 [2-43] |  | 
> 1000 nM | > 1000 nM |  | 100 to 1000 nM |  |  |  | CNC1CCN(c2ccc3nnn(-c4cccc(OC(F)(F)F)c4)c3n2)CC1 [2-44] |  | 
> 1000 nM | > 1000 nM |  |  |  |  |  | FC(F)(F)Oc1cccc(-n2nnc3ccc(N4CCC5(CCNCC5)CC4)nc32)c1 [2-45] |  | 
> 1000 nM | > 1000 nM |  |  |  |  |  | FC(F)(F)Oc1cccc(-n2nnc3ccc(N4CC5CNCC5C4)nc32)c1 (stereo not drawn) [2-46] |  | 
> 1000 nM |  |  |  |  | > 1000 nM |  | O=C1NCCC12CCN(c1ccc3nnn(-c4cccc(OC(F)(F)F)c4)c3n1)CC2 [2-51] |  | 
> 1000 nM |  |  |  |  | > 1000 nM |  | O=C1CNC2(CCN(c3ccc4nnn(-c5cccc(OC(F)(F)F)c5)c4n3)CC2)C1 [2-52] |  | 
100 to 1000 nM | > 1000 nM |  | > 1000 nM | 79 nM | < 100 nM |  | CS(=O)(=O)N1CCC(Nc2ccc3nnn(-c4cccc(OC(F)(F)F)c4)c3n2)CC1 [2-56] |  | 
> 1000 nM | > 1000 nM |  | > 1000 nM | 85 nM | < 100 nM |  | FC(F)(F)Oc1cccc(-n2nnc3ccc(N4CCOC5(CCNCC5)C4)nc32)c1 [2-58] |  | 
> 1000 nM | > 1000 nM |  | 100 to 1000 nM |  | < 100 nM |  | FC(F)(F)Oc1cccc(-n2nnc3ccc(N4CCCC5(CCNCC5)C4)nc32)c1 [2-59] |  | 
> 1000 nM | > 1000 nM |  |  |  |  |  | FC(F)(F)Oc1cccc(-n2nnc3ccc(N4CCC5(CCNC5)CC4)nc32)c1 [2-60] |  | 
> 1000 nM | > 1000 nM |  | > 1000 nM | 74 nM | < 100 nM |  | FC(F)(F)Oc1cccc(-n2nnc3ccc(N4CCC5(CC4)CNCCO5)nc32)c1 [2-61] |  | 
> 1000 nM | > 1000 nM |  | 100 to 1000 nM |  |  |  | FC(F)(F)Oc1cccc(-n2nnc3ccc(N4CCC5(CCNCC5)C4)nc32)c1 [2-62] |  | 
> 1000 nM | > 1000 nM |  |  |  | 100 to 1000 nM |  | FC(F)(F)Oc1cccc(-n2nnc3ccc(N4CCC5(CCNC5)C4)nc32)c1 (stereo not drawn) [2-64] |  | 
> 1000 nM | > 1000 nM |  | 100 to 1000 nM |  |  |  | FC(F)(F)Oc1cccc(-n2nnc3ccc(N4CCNCC4)nc32)c1 [2-69] |  | 
100 to 1000 nM | > 1000 nM |  | 100 to 1000 nM |  | 100 to 1000 nM |  | OC1CCN(c2ccc3nnn(-c4cccc(OC(F)(F)F)c4)c3n2)CC1 [2-70] |  | 
> 1000 nM |  |  | > 1000 nM |  | 100 to 1000 nM |  | CS(=O)(=O)N1CCN(c2ccc3nnn(-c4cccc(OC(F)(F)F)c4)c3n2)CC1 [2-72] |  | 
> 1000 nM | > 1000 nM |  | 100 to 1000 nM |  |  |  | CC(C)N1CCC(CNc2ccc3nnn(-c4cccc(OC(F)(F)F)c4)c3n2)CC1 [2-73] |  | 
> 1000 nM | > 1000 nM |  | 100 to 1000 nM |  |  |  | CCN1CCC(CNc2ccc3nnn(-c4cccc(OC(F)(F)F)c4)c3n2)CC1 [2-76] |  | 
> 1000 nM | > 1000 nM |  |  |  | 100 to 1000 nM |  | FC(F)(F)Oc1cccc(-n2nnc3cc(Cl)c(NCC4CC5(CCNCC5)C4)nc32)c1 [2-77] |  | 
> 1000 nM | < 100 nM | 56 nM | < 100 nM |  | < 100 nM | 20 nM | FC(F)(F)Oc1cccc(-n2nnc3cc(Cl)c(N4CCCC5(CCCN5)CC4)nc32)c1 (stereo not drawn) [2-78] |  | 
> 1000 nM | 100 to 1000 nM | 40 nM | < 100 nM | 33 nM | < 100 nM |  | FC(F)(F)Oc1cccc(-n2nnc3cc(Cl)c(NC4CC5(CCNCC5)C4)nc32)c1 [2-79] |  | 
> 1000 nM | > 1000 nM |  | 100 to 1000 nM |  | 100 to 1000 nM |  | CS(=O)(=O)NC1CCN(c2ccc3nnn(-c4cccc(OC(F)(F)F)c4)c3n2)CC1 [2-80] |  | 
> 1000 nM | 100 to 1000 nM |  | 100 to 1000 nM | 71 nM | < 100 nM |  | FC(F)(F)c1cccc(-n2nnc3ccc(N4CCCC5(CCCN5)CC4)nc32)c1 (stereo not drawn) [2-81] |  | 
> 1000 nM | 100 to 1000 nM |  |  |  | > 1000 nM |  | CCN1CCOC2(CCN(c3ccc4nnn(-c5cccc(OC(F)(F)F)c5)c4n3)CC2)C1 [2-90] |  | 

Reference: patent US20130065883A1 (Centro Nacional de Investigaceiones Oncologicas (CNIO), priority 2010, published 2013)
